Results taken from ChEMBL document CHEMBL4033607, “Structurally Diverse Alkaloids from the Seeds of Peganum harmala” (J Nat Prod, 2017).

Experiments:
Assay type in all cases: functional, cell-based
[1] = test system: PC-3; experiment: Antiproliferative activity against human PC3 cells by MTT assay
[2] = test system: HL-60; experiment: Antiproliferative activity against human HL60 cells by tryphan blue assay
[3] = test system: SGC-7901; experiment: Antiproliferative activity against human SGC7901 cells by MTT assay

| SMILES | IC50 [1] [µM] | IC50 [2] [µM] | IC50 [3] [µM] |
| --- | --- | --- | --- |
| COc1ccc2c3c([nH]c2c1)-c1nc2ccccc2c(=O)n1CC3 | > 10 | > 10 | > 10 |
| COc1ccc2c3c([nH]c2c1)C(=O)NCC3 | > 10 | > 10 | > 10 |
| COc1cc(Cc2cncs2)cc(OC)c1O | > 10 | > 10 | > 10 |
| COc1ccc2c3ccnc4cc(C)c(=O)n(c2c1)c43 | > 10 | > 10 | > 10 |
| COc1ccc2c3c([nH]c2c1)C(c1cnc2ccccc2c1)=NCC3 | > 10 | > 10 | > 10 |
| COc1ccc2c(c1)[nH]c1c(CO)nccc12 | – | 4.36 | – |
| CCc1nccc2c1[nH]c1cc(OC)ccc12 | – | 9.05 | – |
| COC(=O)N1CC[C@@]2(O)c3ccc(OC)cc3N(C(=O)OC)[C@@]12C | > 10 | > 10 | > 10 |
| COC(=O)N1c2cc(OC)ccc2[C@@]2(O)CCN[C@@]12C | > 10 | > 10 | > 10 |
| COC(=O)/C=C1/c2[nH]c3cc(OC)ccc3c2CCN1C(C)=O | > 10 | > 10 | > 10 |
| COc1ccc2c(c1)[nH]c1c(C(N)=O)nccc12 | > 10 | > 10 | > 10 |
| COc1ccc2c3c([nH]c2c1)C(C)=[N+]([O-])CC3 | > 10 | > 10 | > 10 |
| COC(=O)N1CC[C@]2(O)c3ccc(OC)cc3N(C(=O)OC)[C@]12C | > 10 | > 10 | > 10 |
| COc1ccc2c(c1)[nH]c1c(C)[n+]([O-])ccc12 | > 10 | > 10 | > 10 |
| COc1ccc2c3c([nH]c2c1)-c1cc(CO)cc(=O)n1CC3 | > 10 | > 10 | > 10 |
| COc1ccc2c3c([nH]c2c1)-c1cccc(=O)n1CC3 | – | 9.25 | – |
| COC(=O)N1c2cc(OC)ccc2[C@]2(O)CCN[C@]12C | > 10 | > 10 | > 10 |
| COc1cc(Cc2cnc(C)s2)cc(OC)c1O | > 10 | > 10 | > 10 |
| COc1ccc2c(c1)[nH]c1c(C(C)=O)nccc12 [ARENARINE C] | > 10 | > 10 | > 10 |
| COc1ccc2c3c([nH]c2c1)C(C)=NCC3 [HARMALINE] | > 10 | > 10 | > 10 |
| Cc1nccc2c1[nH]c1ccccc12 [HARMAN] | > 10 | > 10 | > 10 |
| COC(=O)c1nccc2c1[nH]c1cc(OC)ccc12 [HARMIC ACID METHYL ESTER] | > 10 | > 10 | > 10 |
